In data set [1] the test system is HCC827. The data set can be described thus: Cytotoxicity against human HCC827 cells assessed as growth inhibition after 72 hrs by resazurin dye-based fluorescence analysis. The data set is classed as functional. The conditions noted are these: HCC827, 72 h.
Data set [2] can be described thus: Cytotoxicity against human CEM cells assessed as growth inhibition after 72 hrs by resazurin dye-based fluorescence analysis. The data set is classed as cell-based. The conditions noted are these: CEM (CCRF-CEM) cells.
Data set [3] deals with EOL1. The data set can be described thus: Cytotoxicity against FIP1L1-PDGFRA positive human EOL-1 cells assessed as growth inhibition after 72 hrs by resazurin dye-based fluorescence analysis. The data set is classed as functional. The conditions noted are these: EOL1, 72 h.
Data set [4] is described as follows: Cytotoxicity against human BJ cells assessed as growth inhibition after 72 hrs by resazurin dye-based fluorescence analysis. Type of data set: cell-based.
Data set [5] has as its system K562. The data set can be described thus: Cytotoxicity against human K562 cells assessed as growth inhibition after 72 hrs by resazurin dye-based fluorescence analysis. Type of data set: functional. The conditions noted are these: K562, 72 h.

With `N[C@H]1CC[C@H](Nc2nc(Nc3ccc(N4CCN(Cc5ccccc5)CC4)cc3)c3ncn(C4CCC(O)C4)c3n2)CC1` (some centres undefined), the GI50 in data set [1] was found to be 840 nM; in data set [3], 11 nM; in data set [5], 652 nM. Moreover, the GI50 at 72 h in data set [2] was determined as 540 nM; in data set [4] it was 16900 nM.

In the case of `N[C@H]1CC[C@H](Nc2nc(Nc3ccc(N4CCN(Cc5ccccc5)CC4)cc3)c3ncn(C4CCCC4)c3n2)CC1`, the GI50 came out at 918 nM in data set [1], 22 nM in data set [3] and 970 nM in data set [5]. For the same compound, the GI50 at 72 h turned out to be 582 nM in data set [2] and 10000 nM in data set [4].

Turning to `NCCCCNc1nc(Nc2ccc(Oc3nccs3)cc2)c2ncn(C3CCCC3)c2n1`, the concentration for 50% growth inhibition (GI50) stood at 6310 nM in data set [1], 118 nM in data set [3] and 5980 nM in data set [5]. Besides, the GI50 at 72 h was 8640 nM in data set [2] and 18600 nM in data set [4].

For the compound `COc1ccccc1-c1ccc(Nc2nc(N[C@H]3CC[C@H](N)CC3)nc3c2ncn3C2CCCC2)cn1`, the GI50 in data set [1] was 638 nM; in data set [3], 14 nM; in data set [5] it was 553 nM. Besides, the GI50 at 72 h was found to be 460 nM in data set [2] and 6200 nM in data set [4].

On to `NCCCCNc1nc(Nc2ccc(N3CCN(Cc4ccccc4)CC3)cc2)c2ncn(CCCO)c2n1`, for which the GI50 was found to be 6700 nM in data set [1], 158 nM in data set [3] and 2570 nM in data set [5]. Besides, the GI50 at 72 h in data set [2] came out at 7570 nM; in data set [4], 28500 nM.

For `N[C@H]1CC[C@H](Nc2nc(Nc3ccc(CN4CCOCC4)cc3)c3ncn(C4CCC(O)C4)c3n2)CC1` (some centres undefined), the values for the GI50 in data set [1], in data set [3] and in data set [5] were 801 nM, 8 nM and 1040 nM, respectively. Also, the figures for the GI50 at 72 h in data set [2] and in data set [4] were 1420 nM and above 40000 nM, respectively.

As for `OCCCCNc1nc(Nc2cccc(CN3CCOCC3)c2)c2ncn(C3CCCC3)c2n1`, the GI50 in data set [1] is 8130 nM; in data set [3] it was 282 nM; in data set [5], 30400 nM. For the same compound, the GI50 at 72 h in data set [2] was 11100 nM; in data set [4], 25700 nM.

Take `N[C@H]1CC[C@H](Nc2nc(Nc3ccc(N4CCN(Cc5ccccc5)CC4)cc3)c3ncn(CCCO)c3n2)CC1`: the GI50 in data set [1] worked out at 2380 nM; in data set [3], 58 nM; in data set [5], 2670 nM. Further, the values for the 50% growth inhibitory concentration (GI50) at 72 h in data set [2] and in data set [4] were 4560 nM and 16500 nM, respectively.

For `c1csc(Oc2ccc(Nc3nc(N4CCOCC4)nc4c3ncn4C3CCCC3)cc2)n1`, the GI50 in data set [1] is 15400 nM; in data set [3], 347 nM; in data set [5], above 40000 nM. Also, the GI50 at 72 h in data set [2] and in data set [4] was above 40000 nM in each case.

For `NCCCCNc1nc(Nc2ccc(CN3CCOCC3)cc2)c2ncn(C3CCC(O)C3)c2n1` (centres undefined), the GI50 in data set [1] is 3240 nM; in data set [3] it was 36 nM; in data set [5], 2230 nM. Moreover, the results for the GI50 at 72 h in data set [2] and in data set [4] were 5510 nM and 4900 nM, respectively.

In the case of `CC(C)(C)c1cc(NC(=O)Nc2ccc(-c3cn4c(n3)sc3cc(OCCN5CCOCC5)ccc34)cc2)no1` [QUIZARTINIB], the GI50 in data set [1] was above 40000 nM; in data set [3], below 0.5 nM; in data set [5], above 40000 nM. In addition, the GI50 at 72 h in data set [2] and in data set [4] was above 40000 nM throughout.

`N[C@H]1CC[C@H](Nc2nc(Nc3ccc(-c4ccoc4)nc3)c3ncn(C4CCCC4)c3n2)CC1`: the 50% growth inhibitory concentration (GI50) in data set [1] worked out at 632 nM; in data set [3], 17 nM; in data set [5] it was 876 nM. Moreover, the GI50 at 72 h in data set [2] came out at 619 nM; in data set [4] it was 13100 nM.

With `COc1ccccc1-c1ccc(Nc2nc(N[C@H]3CC[C@H](N)CC3)nc3c2ncn3C2CCCC2)cc1`, the GI50 in data set [1] is 2300 nM; in data set [3], 117 nM; in data set [5], 2320 nM. For the same compound, the GI50 at 72 h in data set [2] came to 2350 nM; in data set [4] it was 22800 nM.

In the case of `NCCCCNc1nc(Nc2ccc(N3CCN(Cc4ccccc4)CC3)cc2)c2ncn(C3CCC(O)C3)c2n1` (centres undefined), the GI50 was 2290 nM in data set [1], 46 nM in data set [3] and 1630 nM in data set [5]. The GI50 at 72 h in data set [2] worked out at 3670 nM; in data set [4], 13200 nM.

As to `OCCCCNc1nc(Nc2ccc(CN3CCOCC3)cc2)c2ncn(C3CCC(O)C3)c2n1` (centres undefined), the results for the concentration for 50% growth inhibition (GI50) in data set [1], in data set [3] and in data set [5] were 3260 nM, 162 nM and 3780 nM, respectively. Moreover, the GI50 at 72 h in data set [2] turned out to be 6430 nM; in data set [4], 26100 nM.

Consider `N[C@H]1CC[C@H](Nc2nc(Nc3ccc(-c4cccs4)nc3)c3ncn(C4CCCC4)c3n2)CC1`, for which the 50% growth inhibitory concentration (GI50) worked out at 652 nM in data set [1], 21 nM in data set [3] and 574 nM in data set [5]. The 50% growth inhibitory concentration (GI50) at 72 h in data set [2] was determined as 477 nM; in data set [4] it was 2940 nM.

Consider `OCCCCNc1nc(Nc2ccc(Oc3nccs3)cc2)c2ncn(C3CCCC3)c2n1`, for which the GI50 in data set [1] was 6050 nM; in data set [3] it was 489 nM; in data set [5], 6080 nM. The GI50 at 72 h in data set [2] is 13400 nM; in data set [4], 23500 nM.

Take `N[C@H]1CC[C@H](Nc2nc(Nc3ccc(Oc4nccs4)cc3)c3ncn(C4CCCC4)c3n2)CC1`: the GI50 in data set [1] amounted to 692 nM; in data set [3], 8 nM; in data set [5], 676 nM. The GI50 at 72 h in data set [2] amounted to 650 nM; in data set [4] it was 6850 nM.

In the case of `OCCCCNc1nc(Nc2ccc(N3CCN(Cc4ccccc4)CC3)cc2)c2ncn(C3CCC(O)C3)c2n1` (centres undefined), the results for the GI50 in data set [1], in data set [3] and in data set [5] were 3960 nM, 223 nM and 3720 nM, respectively. Also, the GI50 at 72 h stood at 9080 nM in data set [2] and 23800 nM in data set [4].

As for `N[C@H]1CC[C@H](Nc2nc(Nc3ccc(Oc4ncccn4)cc3)c3ncn(C4CCCC4)c3n2)CC1`, the GI50 in data set [1] is 2720 nM; in data set [3], 20 nM; in data set [5], 2270 nM. Besides, the GI50 at 72 h in data set [2] was found to be 1150 nM; in data set [4], 16900 nM.

As to `COc1ccc(-c2ccc(Nc3nc(N[C@H]4CC[C@H](N)CC4)nc4c3ncn4C3CCCC3)cn2)cc1`, the 50% growth inhibitory concentration (GI50) in data set [1] is 581 nM; in data set [3], 25 nM; in data set [5], 698 nM. For the same compound, the GI50 at 72 h worked out at 544 nM in data set [2] and 7230 nM in data set [4].

Consider `N[C@H]1CC[C@H](Nc2nc(Nc3ccc(Oc4ccc(Br)cn4)cc3)c3ncn(C4CCCC4)c3n2)CC1`, for which the GI50 in data set [1] came to 3730 nM; in data set [3], 122 nM; in data set [5], 6080 nM. In addition, the GI50 at 72 h was 6160 nM in data set [2] and above 40000 nM in data set [4].

For the compound `N[C@H]1CC[C@H](Nc2nc(Nc3ccc(-c4ccccc4O)cc3)c3ncn(C4CCCC4)c3n2)CC1`, the GI50 came out at 2530 nM in data set [1], 53 nM in data set [3] and 2080 nM in data set [5]. For the same compound, the GI50 at 72 h was found to be 1490 nM in data set [2] and 9590 nM in data set [4].

Regarding `N[C@H]1CC[C@H](Nc2nc(Nc3cccc(CN4CCOCC4)c3)c3ncn(C4CCC(O)C4)c3n2)CC1` (some centres undefined), the results for the GI50 in data set [1], in data set [3] and in data set [5] were 1670 nM, 9 nM and 1850 nM, respectively. Also, the concentration for 50% growth inhibition (GI50) at 72 h in data set [2] was 1650 nM; in data set [4] it was above 40000 nM.

`OCCCCNc1nc(Nc2ccc(CN3CCOCC3)cc2)c2ncn(C3CCCC3)c2n1`: the GI50 in data set [1] was found to be 2510 nM; in data set [3] it was 202 nM. In addition, the GI50 at 72 h in data set [2] was 3480 nM; in data set [4] it was 22800 nM.
